US7612064B2, “Sulfopyrroles” (Takeda Pharmaceutical Company Limited, priority 2003, dated 2009)

Columns and labels:
HeLa = assay: MTS proliferation assay; format: cell-based, human; details: 72 h
Summary of the method: (§1)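 Four-point treatment (0.3–10 μM final) ran 72 h in complete medium, with the compound-containing addition holding no more than 5% DMSO. Metabolic activity was then developed with MTS reagent over 3 h and quantified by absorbance (492 nm).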

Jurkat = assay: MTS proliferation assay; format: cell-based, human; details: 72 h
Summary of the method: as §1

MRC5 = assay: MTS proliferation assay; format: cell-based; details: MRC5, 72 h
Summary of the method: as §1

[1] = Hoechst 33342 nuclear staining; format: cell-based; details: for Hoechst 33342 nuclear staining score, H460: H460 cells; for Hoechst 33342 nuclear staining score, HeLa: HeLa cells; for Hoechst 33342 nuclear staining score, Jily: Jily cells; for Hoechst 33342 nuclear staining score, Jurkat: Jurkat cells; for Hoechst 33342 nuclear staining score, MRC5: MRC5 cells;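 as to all read-outs here: apoptotic nuclei scored 0 none 1 weak under 50% of cells 2 strong over 50% of cells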
Summary of the method: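 After a further 30 min incubation, plates were inspected on a standard inverted fluorescence microscope. The fraction of apoptotic nuclei and other apoptosis-specific morphology were scored as 0 for no activity, 1 for weak activity in less than 50% of the cells, and 2 for strong activity in more than 50% of the cells.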

[2] = conc 0.1 (final concentrations in μM), 24 h or 48 h incubation
[3] = conc 0.3 (final concentrations in μM), 24 h or 48 h incubation
[4] = conc 1 (final concentrations in μM), 24 h or 48 h incubation
[5] = conc 3 (final concentrations in μM), 24 h or 48 h incubation
[6] = conc 10 (final concentrations in μM), 24 h or 48 h incubation

| Compound | IC50 (HeLa) [nM] | IC50 (Jurkat) [nM] | IC50 (MRC5) [nM] | Hoechst 33342 nuclear staining score, H460 ([1]; conc 0.1) | Hoechst 33342 nuclear staining score, H460 ([1]; conc 0.3) | Hoechst 33342 nuclear staining score, H460 ([1]; conc 1) | Hoechst 33342 nuclear staining score, H460 ([1]; conc 3) | Hoechst 33342 nuclear staining score, HeLa ([1]; conc 0.1) | Hoechst 33342 nuclear staining score, HeLa ([1]; conc 0.3) | Hoechst 33342 nuclear staining score, HeLa ([1]; conc 1) | Hoechst 33342 nuclear staining score, HeLa ([1]; conc 3) | Hoechst 33342 nuclear staining score, Jily ([1]; conc 0.1) | Hoechst 33342 nuclear staining score, Jily ([1]; conc 0.3) | Hoechst 33342 nuclear staining score, Jily ([1]; conc 1) | Hoechst 33342 nuclear staining score, HeLa [1, 3] | Hoechst 33342 nuclear staining score, HeLa [1, 4] | Hoechst 33342 nuclear staining score, HeLa [1, 5] | Hoechst 33342 nuclear staining score, Jurkat [1, 3] | Hoechst 33342 nuclear staining score, Jurkat [1, 4] | Hoechst 33342 nuclear staining score, Jurkat [1, 5] | further results |
| --- | --- | --- | --- | --- | --- | --- | --- | --- | --- | --- | --- | --- | --- | --- | --- | --- | --- | --- | --- | --- | --- |
| COc1cc(-c2cc(CNc3ccc(S(N)(=O)=O)cc3)cn2S(=O)(=O)c2ccc(C)cc2)cc(OC)c1OC [Example 70] | > 1000 | < 1000 | > 1000 | 0 | 0 | 0 | 2 (strong activity comprising more than 50% of the cells) | 0 | 0 | 0 | 0 | 0 | 0 | 0 | – | – | – | – | – | – | Hoechst 33342 nuclear staining score, Jily ([1]; conc 3): 2 (strong activity comprising more than 50% of the cells); Hoechst 33342 nuclear staining score, Jurkat ([1]; conc 0.1): 0; Hoechst 33342 nuclear staining score, Jurkat ([1]; conc 0.3): 0; Hoechst 33342 nuclear staining score, Jurkat ([1]; conc 1): 2 (strong activity comprising more than 50% of the cells); Hoechst 33342 nuclear staining score, Jurkat ([1]; conc 3): 2 (strong activity comprising more than 50% of the cells); Hoechst 33342 nuclear staining score, MRC5 ([1]; conc 0.1): 0; Hoechst 33342 nuclear staining score, MRC5 ([1]; conc 0.3): 0; Hoechst 33342 nuclear staining score, MRC5 ([1]; conc 1): 0; Hoechst 33342 nuclear staining score, MRC5 ([1]; conc 3): 2 (strong activity comprising more than 50% of the cells); Hoechst 33342 nuclear staining score, PBLs ([1]; conc 0.1): 0; Hoechst 33342 nuclear staining score, PBLs ([1]; conc 0.3): 0; Hoechst 33342 nuclear staining score, PBLs ([1]; conc 1): 0; Hoechst 33342 nuclear staining score, PBLs ([1]; conc 3): 0 |
| Cc1ccc(S(=O)(=O)n2cc(CNCCN3CCCC3)cc2-c2ccc3c(c2)OCO3)cc1 [Example 17] | > 1000 | > 1000 | > 1000 | – | – | – | – | – | – | – | – | – | – | – | 0 | 0 | 0 | 0 | 0 | 0 | Hoechst 33342 nuclear staining score, HeLa [1, 2]: 0; Hoechst 33342 nuclear staining score, Jurkat [1, 2]: 0 |
| O=S(=O)(c1cccc(Cl)c1)n1cc(CNc2ccc(-n3ccnc3)cc2)cc1-c1ccc2c(c1)OCO2 [Example 74] | > 1000 | > 1000 | > 1000 | 0 | 0 | 0 | 0 | 0 | 0 | 0 | 0 | 0 | 0 | 0 | – | – | – | – | – | – | Hoechst 33342 nuclear staining score, Jily ([1]; conc 3): 0; Hoechst 33342 nuclear staining score, Jurkat ([1]; conc 0.1): 0; Hoechst 33342 nuclear staining score, Jurkat ([1]; conc 0.3): 0; Hoechst 33342 nuclear staining score, Jurkat ([1]; conc 1): 0; Hoechst 33342 nuclear staining score, Jurkat ([1]; conc 3): 0; Hoechst 33342 nuclear staining score, MRC5 ([1]; conc 0.1): 0; Hoechst 33342 nuclear staining score, MRC5 ([1]; conc 0.3): 0; Hoechst 33342 nuclear staining score, MRC5 ([1]; conc 1): 0; Hoechst 33342 nuclear staining score, MRC5 ([1]; conc 3): 0; Hoechst 33342 nuclear staining score, PBLs ([1]; conc 0.1): 0; Hoechst 33342 nuclear staining score, PBLs ([1]; conc 0.3): 0; Hoechst 33342 nuclear staining score, PBLs ([1]; conc 1): 0; Hoechst 33342 nuclear staining score, PBLs ([1]; conc 3): 0 |
| COc1cc(-c2cc(-c3cncc(C(=O)O)c3)cn2S(=O)(=O)c2ccc(C)cc2)cc(OC)c1OC.N [Example 66] | > 1000 | > 1000 | > 1000 | 0 | 0 | 0 | 0 | 0 | 0 | 0 | 0 | 0 | 0 | 0 | – | – | – | – | – | – | Hoechst 33342 nuclear staining score, Jily ([1]; conc 3): 0; Hoechst 33342 nuclear staining score, Jurkat ([1]; conc 0.1): 0; Hoechst 33342 nuclear staining score, Jurkat ([1]; conc 0.3): 0; Hoechst 33342 nuclear staining score, Jurkat ([1]; conc 1): 0; Hoechst 33342 nuclear staining score, Jurkat ([1]; conc 3): 0; Hoechst 33342 nuclear staining score, MRC5 ([1]; conc 0.1): 0; Hoechst 33342 nuclear staining score, MRC5 ([1]; conc 0.3): 0; Hoechst 33342 nuclear staining score, MRC5 ([1]; conc 1): 0; Hoechst 33342 nuclear staining score, MRC5 ([1]; conc 3): 0; Hoechst 33342 nuclear staining score, PBLs ([1]; conc 0.1): 0; Hoechst 33342 nuclear staining score, PBLs ([1]; conc 0.3): 0; Hoechst 33342 nuclear staining score, PBLs ([1]; conc 1): 0; Hoechst 33342 nuclear staining score, PBLs ([1]; conc 3): 0 |
| CCN1CCN(c2ccc(NCc3cc(-c4ccc5c(c4)OCO5)n(S(=O)(=O)c4ccc(C)cc4)c3)cc2)CC1 [Example 37] | > 1000 | > 1000 | > 1000 | – | – | – | – | – | – | – | – | – | – | – | 0 | 0 | 0 | 0 | 0 | 0 | Hoechst 33342 nuclear staining score, HeLa [1, 6]: 0; Hoechst 33342 nuclear staining score, Jurkat [1, 6]: 0 |
| Cc1ccc(S(=O)(=O)n2cc(CNCCN3CCCCC3)cc2-c2ccc3c(c2)OCO3)cc1 [Example 18] | > 1000 | > 1000 | > 1000 | – | – | – | – | – | – | – | – | – | – | – | 0 | 0 | 0 | 0 | 0 | 0 | Hoechst 33342 nuclear staining score, HeLa [1, 2]: 0; Hoechst 33342 nuclear staining score, Jurkat [1, 2]: 0 |
| Cc1ccc(S(=O)(=O)n2cc(-c3cncc(C(N)=O)c3)cc2-c2ccc3c(c2)OCO3)cc1 [Example 50] | > 1000 | < 1000 | > 1000 | – | – | – | – | – | – | – | – | – | – | – | 0 | 0 | 2 (strong activity comprising more than 50% of the cells) | 0 | 0 | 2 (strong activity comprising more than 50% of the cells) | Hoechst 33342 nuclear staining score, HeLa [1, 2]: 0; Hoechst 33342 nuclear staining score, Jurkat [1, 2]: 0 |
| NC(=O)c1cncc(-c2cc(-c3ccc4c(c3)OCO4)n(S(=O)(=O)c3cccc(Cl)c3)c2)c1 [Example 75] | > 1000 | > 1000 | > 1000 | 0 | 0 | 0 | 0 | 0 | 0 | 0 | 0 | 0 | 0 | 0 | – | – | – | – | – | – | Hoechst 33342 nuclear staining score, Jily ([1]; conc 3): 0; Hoechst 33342 nuclear staining score, Jurkat ([1]; conc 0.1): 0; Hoechst 33342 nuclear staining score, Jurkat ([1]; conc 0.3): 0; Hoechst 33342 nuclear staining score, Jurkat ([1]; conc 1): 0; Hoechst 33342 nuclear staining score, Jurkat ([1]; conc 3): 0; Hoechst 33342 nuclear staining score, MRC5 ([1]; conc 0.1): 0; Hoechst 33342 nuclear staining score, MRC5 ([1]; conc 0.3): 0; Hoechst 33342 nuclear staining score, MRC5 ([1]; conc 1): 0; Hoechst 33342 nuclear staining score, MRC5 ([1]; conc 3): 0; Hoechst 33342 nuclear staining score, PBLs ([1]; conc 0.1): 0; Hoechst 33342 nuclear staining score, PBLs ([1]; conc 0.3): 0; Hoechst 33342 nuclear staining score, PBLs ([1]; conc 1): 0; Hoechst 33342 nuclear staining score, PBLs ([1]; conc 3): 0 |
| CCN1CCN(CCNCc2cc(-c3ccc4c(c3)OCO4)n(S(=O)(=O)c3ccc(C)cc3)c2)CC1 [Example 15] | > 1000 | > 1000 | > 1000 | – | – | – | – | – | – | – | – | – | – | – | 0 | 0 | 0 | 0 | 0 | 0 | Hoechst 33342 nuclear staining score, HeLa [1, 2]: 0; Hoechst 33342 nuclear staining score, Jurkat [1, 2]: 0 |
